Measurements as given in BindingDB's records for doi:10.1016/0922-4106(90)90035-v (Royal Danish School of Pharmacy, 1990).

Assays:
[1] = molecular target: Glutamate receptor ionotropic, NMDA 1 (Rattus norvegicus, UniProt P35439)
Glutamate receptor 3 = Glutamate receptor 3 (Rattus norvegicus, UniProt P19492)
Sequence of Glutamate receptor 3 (P19492 whole entry): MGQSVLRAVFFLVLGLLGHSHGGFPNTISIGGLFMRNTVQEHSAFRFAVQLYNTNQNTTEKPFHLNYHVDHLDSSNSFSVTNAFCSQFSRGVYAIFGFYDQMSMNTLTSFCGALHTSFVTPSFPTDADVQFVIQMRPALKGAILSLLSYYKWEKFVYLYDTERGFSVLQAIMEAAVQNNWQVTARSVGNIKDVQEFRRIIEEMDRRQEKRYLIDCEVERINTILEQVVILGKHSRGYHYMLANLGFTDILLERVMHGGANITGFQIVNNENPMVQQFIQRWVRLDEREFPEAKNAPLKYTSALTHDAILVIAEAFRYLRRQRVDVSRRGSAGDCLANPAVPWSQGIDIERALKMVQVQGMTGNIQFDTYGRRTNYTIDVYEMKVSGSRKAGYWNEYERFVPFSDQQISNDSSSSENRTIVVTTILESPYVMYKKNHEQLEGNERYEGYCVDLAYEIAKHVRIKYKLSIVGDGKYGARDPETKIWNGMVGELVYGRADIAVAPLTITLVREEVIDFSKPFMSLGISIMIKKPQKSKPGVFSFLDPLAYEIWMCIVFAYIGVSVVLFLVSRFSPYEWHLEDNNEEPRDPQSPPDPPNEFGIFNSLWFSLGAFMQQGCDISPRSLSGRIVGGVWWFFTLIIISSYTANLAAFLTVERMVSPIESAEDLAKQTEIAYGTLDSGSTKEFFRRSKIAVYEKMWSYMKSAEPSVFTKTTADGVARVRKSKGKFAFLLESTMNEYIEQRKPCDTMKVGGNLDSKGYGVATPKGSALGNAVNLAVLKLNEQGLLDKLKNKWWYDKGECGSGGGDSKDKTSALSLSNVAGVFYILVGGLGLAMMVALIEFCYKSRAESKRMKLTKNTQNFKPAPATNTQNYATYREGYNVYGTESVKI

Which Ki [1] does the source give for `CNC(C(=O)O)c1c(C)o[nH]c1=O` (configuration not stated) here?
Its Ki is > 10 µM.

Which results are given for `O=C(O)C1NCCc2o[nH]c(=O)c21` (configuration not stated) [CAS_129091]?
Ki (Glutamate receptor 3): > 10 µM; Ki [1]: > 10 µM

For `Cc1o[nH]c(=O)c1C(C(=O)O)N(C)C` (configuration not stated) [N,N-dimethyl-AMAA], which Ki [1] is on record?
The Ki was > 10 µM.

How did the Ki (Glutamate receptor 3) turn out when `Cc1o[nH]c(=O)c1CC(C(=O)O)N(C)C` (configuration not stated) [N,N-dimethyl-AMPA] was run?
Its Ki is > 10 µM.

`CNC(Cc1c(C)o[nH]c1=O)C(=O)O` (configuration not stated) [N-methyl-AMPA] was tested. Which Ki (Glutamate receptor 3) did it give?
The Ki was > 10 µM.

How did the Ki [1] turn out when `O=C(O)c1cccnc1C(=O)O` [pyridine-2,3-dicarboxylic acid] was run?
Its Ki is > 10 µM.
